Test results taken from the NIST ThermoML archive (doi:10.1021/je0342318).
± gives the expanded uncertainty stated by the source.

Assays:
[1] = Liquid; for mass density: 298.15 K, 101.33 kPa
[2] = refractive index (Na D-line) (dimensionless); settings: 298.15 K; 101.33 kPa; Liquid

Normal boiling temperature [1] [°C] | refractive index [2] | mass density [1] [kg/m3] | Structure (SMILES) | mass density ([1]; Vibrating tube method) [kg/m3]
100.81 ± 0.5 | 1.4204 ± 0.0006 | 764.87 ± 0.44 | CC1CCCCC1 [methylcyclohexane] | –
78.26 ± 0.1 | 1.3592 ± 0.0006 | – | CCO [ethanol] | 785.04 ± 0.51

Structure (SMILES) | Normal boiling temperature [1] [°C] | refractive index [2] | mass density [1] [kg/m3] | mass density ([1]; Vibrating tube method) [kg/m3]
Cc1ccc(C)cc1 [1,4-dimethylbenzene] | 138.08 ± 0.5 | 1.493 ± 0.001 | – | 856.55 ± 0.56
